Results on three compounds are retold here after patent US8377963B2, “Insulin-regulated aminopeptidase (IRAP) inhibitors and uses thereof” (Howard Florey Institute, priority 2007, dated 2013).

Test [1] deals with T1, Recombinant human LTA4H (Homo sapiens, UniProt P09960).
T1 construct: purchased Cayman Chemicals
T1 sequence (P09960 1-611): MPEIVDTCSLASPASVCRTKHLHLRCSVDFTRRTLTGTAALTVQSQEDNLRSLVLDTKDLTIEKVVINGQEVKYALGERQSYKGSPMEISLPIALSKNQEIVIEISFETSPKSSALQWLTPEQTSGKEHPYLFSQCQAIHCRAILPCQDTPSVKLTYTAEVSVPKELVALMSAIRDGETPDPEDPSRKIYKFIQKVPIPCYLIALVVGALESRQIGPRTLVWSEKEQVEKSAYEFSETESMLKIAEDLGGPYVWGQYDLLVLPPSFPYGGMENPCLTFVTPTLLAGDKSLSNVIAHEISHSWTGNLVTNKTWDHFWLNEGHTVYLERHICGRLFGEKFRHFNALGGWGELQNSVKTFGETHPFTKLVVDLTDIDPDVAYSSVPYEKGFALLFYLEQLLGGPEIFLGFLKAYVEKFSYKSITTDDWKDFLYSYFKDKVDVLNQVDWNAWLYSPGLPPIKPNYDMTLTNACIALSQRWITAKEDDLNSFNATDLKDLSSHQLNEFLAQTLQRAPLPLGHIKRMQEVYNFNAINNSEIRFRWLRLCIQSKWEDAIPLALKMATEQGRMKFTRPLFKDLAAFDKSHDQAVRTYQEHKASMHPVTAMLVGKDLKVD
In words: Leukotriene A4 hydrolase assay. The test is classed as biochemical. The conditions noted are these: read-out: % inhibition of the catalytic activity of the enzyme. On the procedure:
Leukotriene A4 hydrolase assay. Recombinant human LTA4H (Cayman Chemicals Michigan USA) (1-20 μg) was incubated at room temperature with alanine-p-nitroanilide as substrate in 50 mM Tris-HCl buffer, pH 8.0, containing 100 mM KCl with or without increasing concentrations of an inhibitor. The absorbance at 405 nm was measured at 10 min intervals.
(§1) Limited inhibition of control enzymes was observed.

Test [2] addresses T2, Aminopeptidase N (Sus scrofa, UniProt P15145).
T2 construct: purchased Sigma Aldrich
T2 sequence (P15145 1-963): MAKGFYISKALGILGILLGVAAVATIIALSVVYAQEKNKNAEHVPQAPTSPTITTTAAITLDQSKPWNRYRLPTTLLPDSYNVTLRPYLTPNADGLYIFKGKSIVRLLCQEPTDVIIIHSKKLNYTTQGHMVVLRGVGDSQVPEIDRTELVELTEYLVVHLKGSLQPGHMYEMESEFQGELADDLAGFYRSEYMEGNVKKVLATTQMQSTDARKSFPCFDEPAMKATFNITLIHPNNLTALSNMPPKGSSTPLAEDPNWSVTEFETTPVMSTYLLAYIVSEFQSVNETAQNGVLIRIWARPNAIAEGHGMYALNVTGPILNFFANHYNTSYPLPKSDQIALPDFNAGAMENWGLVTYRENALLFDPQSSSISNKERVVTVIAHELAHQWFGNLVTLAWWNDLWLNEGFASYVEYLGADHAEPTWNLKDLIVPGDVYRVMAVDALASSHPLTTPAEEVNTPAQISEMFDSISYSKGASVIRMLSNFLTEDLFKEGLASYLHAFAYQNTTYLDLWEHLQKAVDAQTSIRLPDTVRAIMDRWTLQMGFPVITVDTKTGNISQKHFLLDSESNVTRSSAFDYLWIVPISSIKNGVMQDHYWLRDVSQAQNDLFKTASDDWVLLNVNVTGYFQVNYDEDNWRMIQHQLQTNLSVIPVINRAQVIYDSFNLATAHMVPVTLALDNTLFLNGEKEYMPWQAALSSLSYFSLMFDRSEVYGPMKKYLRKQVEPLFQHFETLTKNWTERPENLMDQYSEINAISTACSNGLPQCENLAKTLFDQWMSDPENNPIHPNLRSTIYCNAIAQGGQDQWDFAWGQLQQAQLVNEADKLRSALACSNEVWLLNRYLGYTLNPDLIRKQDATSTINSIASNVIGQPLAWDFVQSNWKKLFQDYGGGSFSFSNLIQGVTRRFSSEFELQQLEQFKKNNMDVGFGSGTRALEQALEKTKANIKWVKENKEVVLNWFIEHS
Briefly: Aminopeptidase N assay. The conditions noted are these: read-out: % inhibition of the catalytic activity of the enzyme. The test is classed as biochemical. The method, then: Aminopeptidase N assay. 5 mU of aminopeptidase M (Sigma Aldrich) was incubated with 100 μM of substrate alanine-β-naphthylamide (Sigma Aldrich) in Tris buffered saline (50 mM Tris-HCl, 150 mM NaCl pH 7.5) at 25° C. IRAP inhibitors (1-10 μM) were added after 1 minute and fluorescence at 405 nm was followed.
as §1

In test [3] the target is Angiotensin converting enzyme 1 (Homo sapiens, UniProt P12821). In words: Angiotensin converting enzyme assay. The conditions noted are these: read-out: % inhibition of the catalytic activity of the enzyme. The test is classed as biochemical. On the procedure:
Angiotensin converting enzyme assay. The enzyme (final concentration 0.02 pmol/100 L) was incubated with 200 μL of assay solution that included 5 mmol/L HHL in 100 mmol/L potassium buffer (pH 8.3) that contained 300 mmol/L NaCl and 10^−4 mol/L ZnSO4 for 3 hours at 37° C. The enzymatic reaction was stopped by the addition of 1.5 mL of 0.28N NaOH, 100 μL of o-phthaldialdehyde (20 mg/mL) in methanol was added and the fluorescent reaction stopped by the addition of 200 μL of 3N HCl. The product, L-His-Leu, was measured fluorometrically (360 nm excitation and 500 nm emission).
as §1

Test [4] concerns Glucose-6-phosphate dehydrogenase/glucose hexokinase. In words: Glucose-6-phosphate dehydrogenase and hexokinase activity, fluorimetric assay. The conditions noted are these: 100 μM.
Procedure: Glucose-6-phosphate dehydrogenase and hexokinase activity. Glucose-6-phosphate dehydrogenase and hexokinase activity in the absence and presence of the compounds was determined in a fluorimetric assay. Ten mM Tris MgCl2 buffer (total volume of 200 ml) containing glucose-6-phosphate dehydrogenase, 0.3M ATP, 30 mM NADP+ was added to 96 well microtitre plate together with 20 μl of compound, a reading at excitation 350 nm and emission 510 nm was taken followed by the addition of hexokinase and another reading.
Test [5] deals with T3, IRAP (Homo sapiens, UniProt Q9UIQ6).
T3 construct: expressed in transfected cells; host or cells: HEK 293T
Briefly: IRAP enzymatic assay (hydrolysis of Leu-MCA). The test is classed as biochemical. The conditions noted are these: substrate Leu-MCA, solubilized membranes of HEK 293T cells transfected with IRAP. On the procedure: An in vitro enzymatic assay was used to initially assess IRAP inhibitory activity.
After solubilization, the membranes were pelleted by centrifugation at 23,100 g for 15 min at 4° C., and the supernatant was reserved as the source of IRAP activity. The enzymatic activities of IRAP were determined by the hydrolysis of the synthetic substrate Leu-MCA (Sigma-Aldrich, Missouri, USA) monitored by the release of a fluorogenic product, MCA, at excitation and emission wavelengths of 380 and 440 nm, respectively. Assays were performed in 96-well plates; each well contains between […] solubilized membrane protein, a range of concentration of substrate in a final volume of 100 μL 50 mM Tris-HCl buffer (pH 7.4). Non-specific hydrolysis of the substrate was corrected by subtracting the emission from incubations with membranes transfected with empty vector. Reactions proceeded at 37° C. for 30 min within a thermostatted FLEX station fluorescence microplate reader (Molecular Devices, Sunnyvale, Calif.). […] Km values of IRAP for Leu-MCA were determined from the kinetic studies. […] All data obtained were from at least three separate experiments performed in duplicate.

Sequence of Angiotensin converting enzyme 1 (P12821 30-1306): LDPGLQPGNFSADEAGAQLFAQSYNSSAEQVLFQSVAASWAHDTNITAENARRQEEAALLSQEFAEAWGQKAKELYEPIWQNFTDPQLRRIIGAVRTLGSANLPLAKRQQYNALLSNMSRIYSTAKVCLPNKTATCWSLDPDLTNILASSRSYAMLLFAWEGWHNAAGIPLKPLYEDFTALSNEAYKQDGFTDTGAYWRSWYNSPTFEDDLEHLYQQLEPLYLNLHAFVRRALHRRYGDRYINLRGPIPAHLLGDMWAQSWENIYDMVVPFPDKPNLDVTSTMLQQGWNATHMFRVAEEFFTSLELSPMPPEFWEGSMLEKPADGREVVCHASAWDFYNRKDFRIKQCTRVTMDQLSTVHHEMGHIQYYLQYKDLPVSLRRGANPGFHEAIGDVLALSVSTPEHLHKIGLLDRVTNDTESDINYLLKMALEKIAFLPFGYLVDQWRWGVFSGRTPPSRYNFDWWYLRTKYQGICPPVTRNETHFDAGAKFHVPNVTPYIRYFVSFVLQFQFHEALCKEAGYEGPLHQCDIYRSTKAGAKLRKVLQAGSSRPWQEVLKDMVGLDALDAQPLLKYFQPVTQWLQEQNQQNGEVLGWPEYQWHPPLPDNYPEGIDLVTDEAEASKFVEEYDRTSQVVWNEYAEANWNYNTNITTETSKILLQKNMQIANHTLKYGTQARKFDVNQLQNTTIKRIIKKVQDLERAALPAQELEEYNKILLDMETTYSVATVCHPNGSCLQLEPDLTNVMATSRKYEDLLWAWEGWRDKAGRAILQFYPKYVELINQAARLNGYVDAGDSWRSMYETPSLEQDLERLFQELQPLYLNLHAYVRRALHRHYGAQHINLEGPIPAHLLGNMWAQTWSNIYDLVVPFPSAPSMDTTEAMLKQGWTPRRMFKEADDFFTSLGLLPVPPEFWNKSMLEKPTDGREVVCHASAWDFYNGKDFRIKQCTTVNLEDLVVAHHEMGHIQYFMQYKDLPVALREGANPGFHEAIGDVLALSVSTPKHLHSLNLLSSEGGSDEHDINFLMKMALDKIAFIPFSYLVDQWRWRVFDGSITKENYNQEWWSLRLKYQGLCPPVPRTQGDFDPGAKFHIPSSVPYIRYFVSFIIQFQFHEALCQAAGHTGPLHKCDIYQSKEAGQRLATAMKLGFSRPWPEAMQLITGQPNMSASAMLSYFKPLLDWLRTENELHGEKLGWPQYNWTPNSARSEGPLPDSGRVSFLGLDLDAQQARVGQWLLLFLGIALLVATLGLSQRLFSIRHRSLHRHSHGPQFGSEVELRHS
T3 sequence (Q9UIQ6 whole entry): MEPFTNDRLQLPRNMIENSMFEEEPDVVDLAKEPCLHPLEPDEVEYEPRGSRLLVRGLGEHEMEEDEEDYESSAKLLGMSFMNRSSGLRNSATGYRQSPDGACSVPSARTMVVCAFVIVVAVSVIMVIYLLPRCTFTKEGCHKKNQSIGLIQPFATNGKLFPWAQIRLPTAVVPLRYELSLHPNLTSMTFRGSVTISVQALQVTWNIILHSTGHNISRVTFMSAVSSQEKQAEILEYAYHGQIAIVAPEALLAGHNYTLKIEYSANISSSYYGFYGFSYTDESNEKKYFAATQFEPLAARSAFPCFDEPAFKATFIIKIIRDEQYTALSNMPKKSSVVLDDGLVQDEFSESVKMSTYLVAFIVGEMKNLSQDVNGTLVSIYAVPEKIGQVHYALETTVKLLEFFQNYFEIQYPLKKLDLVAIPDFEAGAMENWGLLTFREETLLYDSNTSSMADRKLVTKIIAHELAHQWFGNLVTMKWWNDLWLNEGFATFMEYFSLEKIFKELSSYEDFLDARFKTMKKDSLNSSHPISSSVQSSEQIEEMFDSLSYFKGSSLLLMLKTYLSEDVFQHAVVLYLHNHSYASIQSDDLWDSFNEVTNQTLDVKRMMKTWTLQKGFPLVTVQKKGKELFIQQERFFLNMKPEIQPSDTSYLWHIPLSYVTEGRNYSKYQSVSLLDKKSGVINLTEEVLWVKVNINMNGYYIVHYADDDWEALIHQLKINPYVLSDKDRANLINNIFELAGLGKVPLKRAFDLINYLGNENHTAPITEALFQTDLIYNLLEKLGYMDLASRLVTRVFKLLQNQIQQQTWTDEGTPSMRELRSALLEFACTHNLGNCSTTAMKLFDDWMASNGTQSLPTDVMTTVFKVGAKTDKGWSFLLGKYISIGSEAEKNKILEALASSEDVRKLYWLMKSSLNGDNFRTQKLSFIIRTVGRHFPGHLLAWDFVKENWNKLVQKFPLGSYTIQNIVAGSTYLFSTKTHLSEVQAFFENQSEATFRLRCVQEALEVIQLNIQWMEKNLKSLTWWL

One may read the inhibition as the share of the control response that was lost under treatment. Regarding `CCOC(=O)C1=C(N)Oc2cc(O)ccc2C1c1cnc2ccccc2c1` (stereo not shown) [Compound 3, Ethyl 2-amino-7-hydroxy-4-quinolin-3-yl-4H-chromene-3-carboxylate], the inhibition at 100 µM in test [1] came to 4%; in test [3], 3%. For the same compound, the inhibition at 10 µM in test [2] worked out at 12%; in test [3] it was 0%. Also, the “% inhibition of the catalytic activity of the enzyme” value in test [4] came to 0%.
Take `CCOC(=O)C1=C(NC(C)=O)Oc2cc(O)ccc2C1c1cnc2ccccc2c1` (stereo not shown) [Compound 4, Ethyl 2-(acetylamino)-7-hydroxy-4-quinolin-3-yl-4H-chromene-3-carboxylate]: the inhibition at 10 µM came out at 0% in test [1] (10 μM), 3% in test [2] and 0% in test [3]. In addition, the inhibition at 100 µM in test [1] came out at 25%; in test [2] (100 μM), 14%; in test [3] it was 0%.
The IC50 is the concentration that inhibits the measured activity by half. A low value points to inhibition by little substance. In the case of `CCOC(=O)C1=C(N)Oc2cc(O)ccc2C1c1cccnc1` (stereo not shown) [reference compound], 3 µM corresponded to half-maximal inhibition in test [5] (IC50). Besides, the Ki in test [5] (calculated from IC50=Ki(1+[S]/Km), read-out: K1) is 2 µM.
